Measurements reported in US20230285504A1, “INHIBITION OF REPERFUSION INJURY WITH A PSD-95 INHIBITOR” (NONO INC., priority 2020, published 2023).
No end group written: not given here.

Tests used:
[1] = Plasma half-life in human; type: in vivo; conditions: intravenous, human equivalent concentrations, read-out: half-life of nerinetide
Text: Tat-NR2B9c has a plasma half-life in human plasma of about ten minutes. […] Alteplase (a recombinant form of tPA) has a half-life in human plasma of only about five minutes. But more significant for present purposes is the half-life of plasmin, which is induced by alteplase and other thrombolytic agents and is responsible for cleavage of Tat-NR2B9c. Plasmin has been reported to have a half-life in human plasma of about 4-8 hr.

[2] = In-vitro effect of alteplase (rt-PA) on nerinetide content in rat plasma (HPLC); type: in vitro ADME; conditions: 65 ug/ml nerinetide, 37 C, alteplase added over 60 minutes (22.5 ug/ml, 3 times and 6 times)
Description: (§1) A. LC/MS spectrum of nerinetide after incubation with plasmin in PBS. 10 uL aliquots of nerinetide (18 mg/mL) and plasmin (1 mg/mL) were incubated in 500 uL tubes of phosphate-buffered saline at 37 C for 5 min and the reaction stopped by cooling to −80C until tested. The various peaks correspond to the indicated fragments. Insert: Predicted trypsin cleavage sites and actual cleavage sites. (B,C) In-vitro effect of rt-PA on nerinetide content in rat (B) and human (C) plasma. Nerinetide was spiked into the plasma samples at t=0 at a concentration of 65 ug/ml, whereas alteplase (rt-PA) was administered as a 60 min infusion at the indicated concentration (D, E) In-vivo effect of the simultaneous administration of nerinetide and rt-PA on Cmax (D) and AUC (E) in the rat. The nerinetide bolus and alteplase (60 min infusion) were started simultaneously through two separate intravenous lines. Symbols represent mean±SD.
The concentration of 65 ug/ml of nerinetide represents the theoretical peak concentration in a 75 kg person receiving 2.6 mg/kg dose as a bolus. Alteplase was added over 60 minutes to simulate the clinical dosing approach.

[3] = Pharmacokinetics of nerinetide in rats with simultaneous alteplase; type: in vivo; conditions: rat
Description: as §1
Since the effect of nerinetide in the ESCAPE-NA1 trial was negated by alteplase, we next evaluated the effects of alteplase on pharmacokinetics (PK) of nerinetide in rats. Alteplase was administered at 0.9 mg/kg (human dose) and at 5.4 mg/kg (6 times the human dose) in an infusion that simulated the clinical protocol (10% bolus followed by a 60 min infusion of the remainder). Nerinetide was administered as an intravenous bolus at the start of the alteplase infusion at 7.6 mg/kg.

[4] = molecular target: second PDZ domain of PSD-95 protein (Homo sapiens, UniProt P78352); conditions: read-out: EC50 binding to second PDZ domain of PSD-95; cited from earlier work
Sequence of second PDZ domain of PSD-95 protein (P78352 160-246 limits assumed): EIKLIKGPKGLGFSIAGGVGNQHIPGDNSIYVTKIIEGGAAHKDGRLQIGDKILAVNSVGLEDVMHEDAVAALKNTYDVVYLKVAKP

[5] = system: embolic middle cerebral artery occlusion (eMCAO)
Description: Nerinetide (7.6 mg/kg) was administered as an intravenous bolus injection either 30 minutes before, or simultaneously with, the onset of a 60-minute infusion of rt-PA (5.4 mg/kg with a 10% bolus followed by 90% over 60 minutes). […] Experimental timeline. […] Hemispheric Infarct volume measurements 24 hours after eMCAo. […] Percentage of hemispheric brain swelling 24 hours after eMCAo and (D). Neurological scores 24 hours after eMCAo. Treatments were administered intravenously at the times indicated in (A). Bars represent mean±SD, with all individual data points plotted. Significant differences (in B) and (in C) are indicated with an asterisk when compared to the control group/nerinetide alone or with a number sign when compare to the thrombolytic agent (one-way ANOVA post hoc Tukey's correction for multiple comparisons test, *P<0.01 or #P <0.01, respectively) N=12-15 animals/group. Significant differences (in D) are indicated with an asterisk when compared to the control group/nerinetide alone or with a number sign when compare to the thrombolytic agent (Kruskal-Wallis analysis of variance on ranks with a post-hoc Dunn's correction for multiple comparisons test, *P<0.01 or #P<0.01, respectively).
To test this, male Sprague-Dawley rats (10-12 weeks old; 270-310 g; Charles River, Montreal, QC, Canada) were subjected to embolic middle cerebral artery occlusion (eMCAO), produced by the introduction of an autologous blood thrombus into the middle cerebral artery. Reperfusion was achieved by treatment with intravenous alteplase at a total dose of 5.4 mg/kg beginning at 90 minutes after ischemia onset. Alteplase was administered using the human injection protocol in which 10% of the total dose is given as a bolus, with the remainder 90% of the dose being given over a 60-minute infusion. The dose of alteplase was 6 times the human dose, in anticipation that the rat fibrinolytic system may be less sensitive to human recombinant tPA. […] Nerinetide was administered either 30 minutes prior to, or concurrently with, the start of the alteplase administration (FIG. 7A) at a dose of 7.6 mg/kg. […] Infarct volumes, hemispheric swelling and neurological scores were evaluated at 24 hours.

[6] = molecular target: protein-protein interactions of PSD-95 with N-Methyl-D-Aspartate glutamate receptors (NMDARs); conditions: read-out: IC50 perturbing PSD-95 interaction with NMDARs; cited from earlier work
[7] = nerinetide 7.6 mg/kg iv bolus with alteplase 0.9 mg/kg (human dose)
[8] = nerinetide 7.6 mg/kg iv bolus with alteplase 5.4 mg/kg started simultaneously
[9] = nerinetide alone 7.6 mg/kg, 60 minutes after eMCAO, 24 hours
[10] = nerinetide at 60 minutes followed by alteplase 30 minutes later, 24 hours

Sequence: YGRKKRRQRRRKLSSIESDV [nerinetide]
- half-life [1]: 5 to 10 min
- nerinetide content in rat plasma on addition of alteplase [2]: reduced the nerinetide content in rat plasma in a concentration-dependent manner
- half-life ([3]; plasma, intravenous, 7.6 mg/kg, human equivalent concentrations (FIG. 6D)): 5 to 10 min
- change of AUC of nerinetide [3, 7]: non-significant reduction
- change of Cmax of nerinetide [3, 7]: non-significant reduction
- lowering of mean AUC of nerinetide [3, 8]: 44%
- lowering of mean Cmax of nerinetide [3, 8]: 49.5%
- EC50 [4]: ~7 nM
- beneficial effect of nerinetide on infarction volume ([5]; nerinetide administered concurrently with alteplase at 60 min after eMCAO): eliminated completely
- infarction volume [5, 9]: 175±40 mm3
- reduction of infarction volume [5, 9]: 59.2%
- infarct volume reduction ([5]; nerinetide at 60 minutes followed by alteplase 30 minutes later): 70%
- hemispheric swelling [5, 10]: reducing hemispheric swelling
- neurological scores [5, 10]: improving neurological scores
- IC50 [6]: 1000 to 8000 nM
